In patent US11471390B2, “Pseudoceramide compound and use thereof” (DAEBONG LS, LTD, priority 2017, dated 2022):

Tested on: Raw264.7 macrophage cells
Test: Cell viability of Raw264.7 macrophage cells by MTT assay (cytotoxicity)
Type: cell-based
Settings: Raw264.7, MTT
Description: The cell viabilities of Raw264.7 macrophage cells were assessed by MTT assay to evaluate the cytotoxicities of the pseudoceramide compounds. When the cell viability was ≥80% by MTT assay, the pseudoceramide compound was judged to be not cytotoxic. The cell viabilities of the pseudoceramide compounds were […] at concentrations of 1-50 μg/mL, indicating no toxicity to Raw264.7 macrophage (Table 1). Another experiment for anti-inflammatory effects of the pseudoceramide compounds was conducted at concentrations of 1-50 μg/mL.

## Cc1ccnc(N)c1 [2-Amino-4-methylpyridine, reference compound]
10 μM
  Cell viability (%): 103.13%

## CCCCCCCC/C=C\CCCCCCCC(=O)NC(CO)CO [Example 1, N-(1,3-dihydroxypropan-2-yl)oleamide]
Concentration 5.0 (μg/mL)
  Cell viability (%): 100.99%
Concentration 10.0 (μg/mL)
  Cell viability (%): 102.08%
Concentration 25.0 (μg/mL)
  Cell viability (%): 102.14%
Concentration 50.0 (μg/mL)
  Cell viability (%): 102.22%

## CCCCC/C=C\C/C=C\CCCCCCCC(=O)NC(CO)CO [Example 2, (9Z,12Z)—N-(1,3-dihydroxypropan-2-yl)octadeca-9,12-dienamide]
Concentration 5.0 (μg/mL)
  Cell viability (%): 100.35%
Concentration 10.0 (μg/mL)
  Cell viability (%): 100.24%
Concentration 25.0 (μg/mL)
  Cell viability (%): 100.09%
Concentration 50.0 (μg/mL)
  Cell viability (%): 93.80%

## CC/C=C\C/C=C\C/C=C\CCCCCCCC(=O)NC(CO)CO [Example 3, (9Z,12Z,15Z)—N-(1,3-dihydroxypropan-2-yl)octadeca-9,12,15-trienamide]
Concentration 5.0 (μg/mL)
  Cell viability (%): 95.72%
Concentration 10.0 (μg/mL)
  Cell viability (%): 101.01%
Concentration 25.0 (μg/mL)
  Cell viability (%): 96.58%
Concentration 50.0 (μg/mL)
  Cell viability (%): 96.64%
